From patent US4390629A, “Polypeptide degrading enzymes” (President and Fellows of Harvard College, priority 1981, dated 1983) come the findings set out here.

Read-outs that look alike come from different tables or passages of the source.

Data set [1] has as its system Protease Ci. In words: Inhibition and stimulation of protease Ci insulin-degrading activity. In kind it is biochemical, E. coli.
Data set [2] relates to Protease So. Type of data set: biochemical, E. coli.
In data set [3] the target is T1, La (Escherichia coli, UniProt P0A9M0).
Data set [4] concerns Mi. Type of data set: biochemical, E. coli.
Data set [5] deals with Fa. Type of data set: biochemical, E. coli.
Data set [6] deals with T2, Protease Re (Escherichia coli, UniProt P23865).
T2 sequence (P23865 23-682): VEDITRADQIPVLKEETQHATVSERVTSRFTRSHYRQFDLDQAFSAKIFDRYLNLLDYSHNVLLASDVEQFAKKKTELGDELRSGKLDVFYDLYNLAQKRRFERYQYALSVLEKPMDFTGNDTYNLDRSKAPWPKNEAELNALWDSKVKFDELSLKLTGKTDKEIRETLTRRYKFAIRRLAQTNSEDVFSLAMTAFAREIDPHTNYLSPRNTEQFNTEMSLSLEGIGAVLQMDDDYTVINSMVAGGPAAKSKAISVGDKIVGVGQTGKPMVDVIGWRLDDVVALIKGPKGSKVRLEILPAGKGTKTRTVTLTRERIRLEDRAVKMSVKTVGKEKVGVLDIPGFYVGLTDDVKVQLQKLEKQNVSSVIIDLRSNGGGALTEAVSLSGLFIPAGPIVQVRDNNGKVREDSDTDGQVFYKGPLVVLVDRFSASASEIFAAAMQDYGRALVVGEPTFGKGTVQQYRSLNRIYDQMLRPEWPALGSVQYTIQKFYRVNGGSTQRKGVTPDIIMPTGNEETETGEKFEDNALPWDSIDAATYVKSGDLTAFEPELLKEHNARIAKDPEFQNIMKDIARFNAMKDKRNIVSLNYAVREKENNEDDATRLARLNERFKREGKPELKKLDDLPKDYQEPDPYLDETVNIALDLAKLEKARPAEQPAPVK
Kind of data set: Sensitivity of protease Re proteolytic activity (casein) to inhibitors. Type of data set: biochemical, E. coli.

Data set [7] has as its target T1, La. Kind of data set: biochemical. The note with it: read-out: stimulation of globin-degrading activity in peak IV.
For data set [8], the system named is [^14 C] globin. In words: Degradation of [14C] globin to acid-soluble products. In kind it is biochemical, beef.
Data set [9] relates to [^3 H] casein. In words: Degradation of [3H] casein to acid-soluble products. Type of data set: biochemical, bovine.

In the case of `[Mn+2]` [Mn^++], the “stimulation of protease Ci activity by divalent cations” value (“stimulation of protease Ci activity” below) in data set [1] is given as “markedly stimulated”.
Regarding `N=C(N)c1ccc(OCCCCCOc2ccc(C(=N)N)cc2)cc1` [pentamidine], in data set [2], the “inhibition of protease So” value is given as “about 80%”.
In the case of `Nc1ncnc2c1ncn2[C@H]1C[C@H](O)[C@@H](COP(=O)(O)OP(=O)(O)OP(=O)(O)O)O1` [deoxyadenosine triphosphate], the “stimulation of La proteolysis by nucleotides (in words)” value (shortened to “stimulation of La proteolysis”) in [3] is “stimulate but less effectively”.
`[O]=[V]([O-])([O-])[O-]` [Vanadate]: the “sensitivity of La to inhibitor” value in data set [3] is “sensitive to inhibition”.
bacitracin: the “inhibition of protease Ci activity by antibiotics” value in [1] is given as “strongly inhibit”.
Regarding `O=C(O)CN(CCN(CC(=O)O)CC(=O)O)CC(=O)O` [EDTA], in data set [4], the “inhibition of Mi” value is on record as “about 35%”. Also, the “inhibition of Fa” value in [5] is listed as 60%. Further, the “sensitivity of protease Re to inhibitor” value in data set [6] was “sensitive”.
Consider `O=S(=O)(F)Cc1ccccc1` [phenylmethyl sulfonyl fluoride], for which the “sensitivity of protease So to inhibitor” value in [2] was “sensitive”. Also, the “sensitivity of La to inhibitor” value in data set [3] is recorded as “sensitive”. The “sensitivity of protease Re to inhibitor” value in data set [6] is listed as “sensitive”.
As to `O=C(O)CN(CCOCCOCCN(CC(=O)O)CC(=O)O)CC(=O)O` [EGTA], the “inhibition of protease Ci activity” value in [1] is given as “not”.
On to `O=C(O)c1cc[c]([Hg+])cc1.[OH-]` [p-hydroxymercuribenzoate], for which the “inhibition of protease Ci activity” value in data set [1] was “sensitive”.
On to `Nc1ncnc2c1ncn2[C@@H]1O[C@H](COP(=O)(O)OP(=O)(O)OP(=O)(O)O)[C@@H](O)[C@H]1O` [ATP], for which the fold induction at 3000 µM in data set [7] fell in the range of 4 to 20. Besides, in [3] (3000 µM), the “increase of degradation of globin and casein by La” value is recorded as 2.5-20 fold.
For `Nc1ccn([C@@H]2O[C@H](COP(=O)(O)OP(=O)(O)OP(=O)(O)O)[C@@H](O)[C@H]2O)c(=O)n1` [CTP], in [3], the “stimulation of La proteolysis” value was “stimulate but less effectively”.
With `[Co+2]` [Co^++], the “stimulation of protease Ci activity” value in data set [1] was “markedly stimulated”.
Regarding `O=c1ccn([C@@H]2O[C@H](COP(=O)(O)OP(=O)(O)OP(=O)(O)O)[C@@H](O)[C@H]2O)c(=O)[nH]1` [UTP], the “stimulation of La proteolysis” value in [3] is “stimulate but less effectively”.
With `CCN1C(=O)C=CC1=O` [N-ethyl maleimide], the “sensitivity of La to inhibitor” value in data set [3] is on record as “inhibited”.
`CCCCCCC1OC(=O)CNC(=O)C(C(C)O)NC(=O)C(CO)NC(=O)C(C(C)CC)NC(=O)C(CC(C)C)N(C)C(=O)C1C` (centres unmarked) [globomycin]: the “inhibition of protease Ci activity by antibiotics” value in [1] (concentrations of 5-20 μg per ml) was “strongly inhibit”.
Regarding `c1cnc2c(c1)ccc1cccnc12` [o-phenanthroline], the “inhibition of Mi” value in data set [4] is “about 35%”. In addition, the “inhibition of protease Ci activity” value in data set [1] is listed as “inhibited”. In addition, the “inhibition of Fa” value in data set [5] is “about 35%”. For the same molecule, the “sensitivity of protease Re to inhibitor” value in [6] (casein as substrate) is recorded as “sensitive”.
Consider `[Zn+2]` [Zn^++], for which the “stimulation of protease Ci activity” value in [1] is on record as “not”.

B1: Do: E. coli serine protease of about 520,000 daltons, degrades globin and casein (protein, UniProt P0C0V0 27-474, looked up)
Periplasmic serine …: AETSSATTAQQMPSLAPMLEKVMPSVVSINVEGSTTVNTPRMPRNFQQFFGDDSPFCQEGSPFQSSPFCQGGQGGNGGGQQQKFMALGSGVIIDADKGYVVTNNHVVDNATVIKVQLSDGRKFDAKMVGKDPRSDIALIQIQNPKNLTAIKMADSDALRVGDYTVAIGNPFGLGETVTSGIVSALGRSGLNAENYENFIQTDAAINRGNSGGALVNLNGELIGINTAILAPDGGNIGIGFAIPSNMVKNLTSQMVEYGQVKRGELGIMGTELNSELAKAMKVDAQRGAFVSQVLPNSSAAKAGIKAGDVITSLNGKPISSFAALRAQVGTMPVGSKLTLGLLRDGKQVNVNLELQQSSQNQVDSSSIFNGIEGAEMSNKGKDQGVVVNNVKTGTPAAQIGLKKGDVIIGANQQAVKNIAELRKVLDSKPSVLALNIQRGDSTIYLLMQ
B1: the degradation of globin result in [8] is listed as “hydrolyze”. The degradation of casein entry in [9] is “hydrolyze”.

B2: La: ATP-dependent cytoplasmic E. coli serine protease of peak IV, about 115,000 daltons (protein, UniProt P0A9M0 2-784, looked up)
Lon protease: NPERSERIEIPVLPLRDVVVYPHMVIPLFVGREKSIRCLEAAMDHDKKIMLVAQKEASTDEPGVNDLFTVGTVASILQMLKLPDGTVKVLVEGLQRARISALSDNGEHFSAKAEYLESPTIDEREQEVLVRTAISQFEGYIKLNKKIPPEVLTSLNSIDDPARLADTIAAHMPLKLADKQSVLEMSDVNERLEYLMAMMESEIDLLQVEKRIRNRVKKQMEKSQREYYLNEQMKAIQKELGEMDDAPDENEALKRKIDAAKMPKEAKEKAEAELQKLKMMSPMSAEATVVRGYIDWMVQVPWNARSKVKKDLRQAQEILDTDHYGLERVKDRILEYLAVQSRVNKIKGPILCLVGPPGVGKTSLGQSIAKATGRKYVRMALGGVRDEAEIRGHRRTYIGSMPGKLIQKMAKVGVKNPLFLLDEIDKMSSDMRGDPASALLEVLDPEQNVAFSDHYLEVDYDLSDVMFVATSNSMNIPAPLLDRMEVIRLSGYTEDEKLNIAKRHLLPKQIERNALKKGELTVDDSAIIGIIRYYTREAGVRGLEREISKLCRKAVKQLLLDKSLKHIEINGDNLHDYLGVQRFDYGRADNENRVGQVTGLAWTEVGGDLLTIETACVPGKGKLTYTGSLGEVMQESIQAALTVVRARAEKLGINPDFYEKRDIHVHVPEGATPKDGPSAGIAMCTALVSCLTGNPVRADVAMTGEITLRGQVLPIGGLKEKLLAAHRGGIKTVLIPFENKRDLEEIPDNVIADLDIHPVKRIEEVLTLALQNEPSGMQVVTAK
For the molecule B2, the degradation of globin entry in data set [8] is reported as “capable of degrading”. For the same molecule, in [9], the degradation of casein entry is “capable of degrading”.
